Experiments:
[1] = Cytotoxicity to MT-4 cells (not infected with HIV); type: cell-based; settings: human, 5 days, 37° C., read-out: 50% cytotoxic concentration to MT-4 cells
Description: (§1) In RPMI 1640 DM culture medium containing 20 mM of Hepes buffer solution, 10% fetal bovine serum and 20 µg/ml of gentamycin, 3×10^4 MT-4 cells (human T cell clone which is destroyed by the infection of HIV) were infected with HIV in an amount of 100 times as large as expected to cause 50% infection of the cells. Immediately thereafter, a predetermined amount of sample was added to the culture medium using 50 mg/ml sample solutions in dimethyl sulfoxide and the cells were cultured at 37° C.
(§2) After 5 days of incubation, the number of existing cells was counted to determine the concentration of the compound for preventing the death of 50% of the MT-4 cells. Separately, MT-4 cells were cultured in the same way as above except that they were not infected with HIV to determine the concentration of the compound at which 50% of the MT-4 cells were destroyed.

HIV [2] = assay: Inhibitory activity for HIV infection (preventing the death of 50% of the MT-4 cells); type: cell-based; settings: Human immunodeficiency virus 1, MT4, 120 h, 5 days of incubation, 37° C., read-out: 50% inhibitory concentration of HIV infection
Description: as §1, §2

HUT-78 cells = assay: Toxicity to HUT-78 cells; type: cell-based, human; settings: 100 μM
HIV [3] = assay: Inhibitory activity for HIV proliferation (HIV antigen expression in HUT-78 cells, indirect immunofluorescence assay); type: cell-based
Description: In the same culture as that for the MT-4 cells, HUT-78 cells (human T cell clone which is not destroyed by the infection of HIV and releases HIV) were infected with HIV in an amount of 0.4 HIV per HUT-78 cell. Immediately thereafter, a predetermined concentration of 1-[(2-hydroxyethoxy)methyl]-6-phenylthiothymine was added to the culture medium and the cells were cultured at 37° C.
Every four days, 3/4 of the culture solution was exchanged and after 12 days of incubation the number of the cells positive to an HIV antigen was counted by indirect immunofluorescence assay using HIV antiserum (positive to the coating protein and core protein of HIV) which had been obtained from an HIV-infected patient.
For comparison, a similar experiment was carried out by using 2',3'-dideoxyadenosine.

host cell = settings: background art statement; clinical treatment of HIV-infection; cited from earlier work

Compound | CC50 at 120 h [1] [µM] | IC50 (HIV [2]) [µM] | other results
Cc1c(Sc2ccccc2)n(COCCO)c(=O)[nH]c1=O [compound 1, 1-[(2-hydroxyethoxy)methyl]-6-phenylthiothymine] | > 250 | 7 | toxicity to the HUT-78 cells (HUT-78 cells): no toxicity to the HUT-78 cells was observed; prevention of the expression of the HIV antigens (HIV [3]; 20 μM, 12 days of incubation): completely prevented the expression of the antigens; IC50 (HIV [3]; Human immunodeficiency virus 1, HuT78, 288 h, 12 days of incubation, indirect immunofluorescence, read-out: 50% inhibitory concentration (expression of HIV antigens)): 5.2 µM
Cc1c(SC2CCCCC2)n(COCCO)c(=O)[nH]c1=O [compound 25] | > 250 | 18 | –
Cc1cn([C@H]2C[C@H](N=[N+]=[N-])[C@@H](CO)O2)c(=O)[nH]c1=O [3'-deoxy-3'-azidothymidine] | – | – | toxicity in the host cell (host cell): considerable toxicity in the host cell
COc1cccc(Sc2c(C)c(=O)[nH]c(=O)n2COCCO)c1 [compound 13] | > 250 | 22 | –
COc1ccccc1Sc1c(C)c(=O)[nH]c(=O)n1COCCO [compound 12] | > 250 | 19 | –
Cc1c(Sc2cccc(Cl)c2)n(COCCO)c(=O)[nH]c1=O [compound 10] | > 250 | 13 | –
Cc1cccc(Sc2c(C)c(=O)[nH]c(=O)n2COCCO)c1 [compound 7] | > 250 | 5.1 | –
Nc1ncnc2c1ncn2[C@H]1CC[C@@H](CO)O1 [2',3'-dideoxyadenosine, reference compound] | – | – | toxicity to the HUT-78 cells (HUT-78 cells): significant toxicity to the HUT-78 cells; prevention of the expression of the HIV antigen (HIV [3]; at a similar concentration to the present compound (20 μM)): completely prevented the expression of the antigen
Cc1c(Sc2cccc([N+](=O)[O-])c2)n(COCCO)c(=O)[nH]c1=O [compound 17] | > 250 | 34 | –
Cc1c(Sc2ccccc2)n(COCCO)c(=S)[nH]c1=O [compound 59, 1-[(2-hydroxyethoxy)methyl]-2-thio-6-phenylthiothymine] | 125 | 0.98 | –

Source: patent publication US5112835A, “6-substituted acyclopyrimidine nucleoside derivatives and antiviral agents containing the same as active ingredient thereof” (Mitsubishi Kasei Corporation, priority 1988, dated 1992)
